Measurements as given in ChEMBL document CHEMBL1614629, “Extrapolation of human pharmacokinetic parameters from rat, dog, and monkey data: Molecular properties associated with extrapolative success or failure” (J Pharm Sci, 2005).

What was measured:
[1] = Volume of distribution at steady state in monkey after iv administration; type: ADME, organism-based; conditions: macaca, in vivo, read-out: Vdss
[2] = Volume of distribution at steady state in rat after iv administration; type: ADME, organism-based; conditions: in vivo
[3] = Clearance in dog after iv administration; type: ADME, organism-based, Canis lupus familiaris; conditions: in vivo
[4] = Clearance in monkey after iv administration; type: ADME, organism-based; conditions: macaca, in vivo
[5] = Clearance in rat after iv administration; type: ADME, organism-based; conditions: in vivo
[6] = Volume of distribution at steady state in dog after iv administration; type: ADME, organism-based, Canis lupus familiaris; conditions: in vivo, read-out: Vdss
[7] = Clearance in human after iv administration; type: ADME, organism-based; conditions: in vivo
[8] = Volume of distribution at steady state in human after iv administration; type: ADME, organism-based; conditions: in vivo, read-out: Vdss

In the case of `NC1(C(=O)O)CC1` [1-Aminocyclopropane carboxylic acid], the Vd [1] is reported as 0.72 L/kg, the Vdss [2] is reported as 0.64 L/kg and the clearance [3] is reported as 0.4 mL/min/kg. It also gave a clearance [4] of 3.1 mL/min/kg, a clearance [5] of 3.2 mL/min/kg and a Vd [6] of 0.7 L/kg. It also gave a clearance [7] of 1.5 mL/min/kg and a Vd [8] of 0.73 L/kg.

Work on `C[C@@H]1[C@H](O)[C@@H](C)/C=C/C=C/C=C/C=C/C=C/C=C/C=C/[C@H](O[C@@H]2O[C@H](C)[C@@H](O)[C@H](N)[C@@H]2O)C[C@@H]2O[C@](O)(C[C@@H](O)C[C@@H](O)[C@H](O)CC[C@@H](O)C[C@@H](O)CC(=O)O[C@H]1C)C[C@H](O)[C@H]2C(=O)O` [AMPHOTERICIN B] yielded a Vd [1] of 0.2 L/kg, a Vdss [2] of 2.3 L/kg and a clearance [3] of 0.1 mL/min/kg. For the same molecule, the clearance [4] was 0.1 mL/min/kg, the clearance [5] was 2 mL/min/kg and the Vd [6] was 0.5 L/kg. The clearance [7] was 0.4 mL/min/kg and the Vd [8] was 4 L/kg.

In the case of `CC[C@H]1OC(=O)[C@H](C)[C@@H](O[C@H]2C[C@@](C)(OC)[C@@H](O)[C@H](C)O2)[C@H](C)[C@@H](O[C@@H]2O[C@H](C)C[C@H](N(C)C)[C@H]2O)[C@](C)(O)C[C@@H](C)C(=O)[C@H](C)[C@@H](O)[C@]1(C)O` [ERYTHROMYCIN], the Vd [1] is reported as 0.93 L/kg, the Vdss [2] is reported as 9.3 L/kg and the clearance [3] is reported as 21 mL/min/kg. The clearance [4] was 14 mL/min/kg, the clearance [5] was 73 mL/min/kg and the Vd [6] was 2.7 L/kg. For the same molecule, the clearance [7] was 7 mL/min/kg and the Vd [8] was 0.89 L/kg.

Molecule `CN1CCN(c2c(F)cc3c(=O)c(C(=O)O)cn(CCF)c3c2F)CC1` [FLEROXACIN] has a Vd [1] of 1.2 L/kg, a Vdss [2] of 1.3 L/kg and a clearance [3] of 1.6 mL/min/kg. The clearance [4] was 4 mL/min/kg, the clearance [5] was 5.7 mL/min/kg and the Vd [6] was 1.3 L/kg. For the same molecule, the clearance [7] was 2.4 mL/min/kg and the Vd [8] was 1.5 L/kg.

For `CO/N=C(\C(=O)N[C@@H]1C(=O)N2C(C(=O)O)=C(CSc3nc(=O)c(=O)[nH]n3C)CS[C@H]12)c1csc(N)n1` [CEFTRIAXONE], the Vd [1] was 0.11 L/kg, the Vdss [2] was 0.18 L/kg and the clearance [3] was 4 mL/min/kg. For the same molecule, the clearance [4] was 0.45 mL/min/kg, the clearance [5] was 4 mL/min/kg and the Vd [6] was 0.24 L/kg. The clearance [7] was 0.24 mL/min/kg and the Vd [8] was 0.16 L/kg.

Molecule `CO/N=C(\C(=O)N[C@@H]1C(=O)N2C(C(=O)O)=C(CSc3nc(C)c(CC(=O)O)s3)CS[C@H]12)c1csc(N)n1` [CEFODIZIME] has a Vd [1] of 0.15 L/kg, a Vdss [2] of 0.18 L/kg and a clearance [3] of 4.1 mL/min/kg. The clearance [4] was 1.2 mL/min/kg, the clearance [5] was 1.1 mL/min/kg and the Vd [6] was 0.26 L/kg. It also gave a clearance [7] of 0.73 mL/min/kg and a Vd [8] of 0.15 L/kg.

Work on `Cc1nc(=O)c(C#N)c(NCc2cccnc2)[nH]1` [PELRINONE] yielded a Vd [1] of 0.85 L/kg, a Vdss [2] of 3.3 L/kg and a clearance [3] of 11 mL/min/kg. For the same molecule, the clearance [4] was 13 mL/min/kg, the clearance [5] was 28 mL/min/kg and the Vd [6] was 1.2 L/kg. The clearance [7] was 4 mL/min/kg and the Vd [8] was 0.35 L/kg.

Work on `COCCOC(=O)C1=C(C)NC(C)=C(C(=O)OC(C)C)C1c1cccc([N+](=O)[O-])c1` (stereo not given) [NIMODIPINE] yielded a Vd [1] of 3.6 L/kg, a Vdss [2] of 0.96 L/kg and a clearance [3] of 34 mL/min/kg. The clearance [4] was 33 mL/min/kg, the clearance [5] was 56 mL/min/kg and the Vd [6] was 3.2 L/kg. The clearance [7] was 14 mL/min/kg and the Vd [8] was 0.9 L/kg.

Work on `C#CCCCC(=O)c1cc(C(C)(C)C)c(O)c(C(C)(C)C)c1` [TEBUFELONE] yielded a Vd [1] of 53 L/kg, a Vdss [2] of 10 L/kg and a clearance [3] of 32 mL/min/kg. It also gave a clearance [4] of 17 mL/min/kg, a clearance [5] of 42 mL/min/kg and a Vd [6] of 81 L/kg. For the same molecule, the clearance [7] was 9.9 mL/min/kg and the Vd [8] was 30 L/kg.

`CN(Cc1cnc2nc(N)nc(N)c2n1)c1ccc(C(=O)N[C@@H](CCC(=O)O)C(=O)O)cc1` [METHOTREXATE] showed a Vd [1] of 1.2 L/kg, a Vdss [2] of 0.4 L/kg and a clearance [3] of 1.2 mL/min/kg. The clearance [4] was 8 mL/min/kg, the clearance [5] was 12 mL/min/kg and the clearance [7] was 2.5 mL/min/kg. It also gave a Vd [8] of 0.67 L/kg.

Molecule `COc1cccc2c1C(=O)c1c(O)c3c(c(O)c1C2=O)C[C@@](O)(C(=O)CO)C[C@@H]3O[C@H]1C[C@H](N)[C@H](O)[C@H](C)O1` [DOXORUBICIN] has a Vd [1] of 24 L/kg, a Vdss [2] of 25 L/kg and a clearance [3] of 17 mL/min/kg. The clearance [4] was 28 mL/min/kg, the clearance [5] was 34 mL/min/kg and the Vd [6] was 44 L/kg. For the same molecule, the clearance [7] was 17 mL/min/kg and the Vd [8] was 25 L/kg.

In the case of `CN1C(=O)OC(C)(C)C1=O` [TRIMETHADIONE], the Vd [1] is reported as 0.66 L/kg, the Vdss [2] is reported as 0.66 L/kg and the clearance [3] is reported as 2.9 mL/min/kg. The clearance [4] was 1.6 mL/min/kg, the clearance [5] was 5.7 mL/min/kg and the Vd [6] was 0.63 L/kg. It also gave a clearance [7] of 0.7 mL/min/kg and a Vd [8] of 0.61 L/kg.

Work on `O=C1CN=C(c2ccccc2Cl)c2cc([N+](=O)[O-])ccc2N1` [CLONAZEPAM] yielded a Vd [1] of 6.8 L/kg, a Vdss [2] of 3 L/kg and a clearance [3] of 11 mL/min/kg. For the same molecule, the clearance [4] was 14 mL/min/kg, the clearance [5] was 21 mL/min/kg and the Vd [6] was 1.6 L/kg. The clearance [7] was 1.6 mL/min/kg and the Vd [8] was 5.5 L/kg.

In the case of `CO/N=C(\C(=O)N[C@@H]1C(=O)N2C(C(=O)[O-])=C(C[n+]3ccn4ncccc43)CS[C@H]12)c1nsc(N)n1` [CEFOZOPRAN], the Vd [1] is reported as 0.2 L/kg, the Vdss [2] is reported as 0.2 L/kg and the clearance [3] is reported as 3 mL/min/kg. The clearance [4] was 1.9 mL/min/kg, the clearance [5] was 9.4 mL/min/kg and the Vd [6] was 0.21 L/kg. It also gave a clearance [7] of 1.5 mL/min/kg and a Vd [8] of 0.27 L/kg.

For `COCCc1ccc(OCC(O)CNC(C)C)cc1` (stereo not given) [METOPROLOL], the Vd [1] was 3 L/kg, the Vdss [2] was 7 L/kg and the clearance [3] was 23 mL/min/kg. For the same molecule, the clearance [4] was 30 mL/min/kg, the clearance [5] was 185 mL/min/kg and the Vd [6] was 4.5 L/kg. For the same molecule, the clearance [7] was 15 mL/min/kg.

With `CC1(C)O[C@@H]2C[C@H]3[C@@H]4C[C@H](F)C5=CC(=O)C=C[C@]5(C)[C@H]4[C@@H](O)C[C@]3(C)[C@]2(C(=O)CO)O1` [FLUNISOLIDE] the Vd [1] was 4 L/kg, the Vdss [2] was 3 L/kg and the clearance [3] was 12.9 mL/min/kg. It also gave a clearance [4] of 19 mL/min/kg, a clearance [5] of 8.8 mL/min/kg and a Vd [6] of 3.7 L/kg. For the same molecule, the clearance [7] was 12 mL/min/kg.
